Experimental data: PubChem BioAssay (NCI)
Where “and” joins values, the source holds several entries; their conditions need not be identical. Identical values can stand only once.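 Assay format: 96-well plates, 48-hour exposure. Abbreviation: GI50, concentration required for 50% inhibition of growth. TGI denotes the concentration required for complete inhibition of growth.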

Legend:
Test in all cases: NCI tumour cell line growth inhibition, 48 h
[1] = test system: MALME-3M melanoma
[2] = test system: SW-620 colon
[3] = test system: NCI-H23 lung
[4] = test system: MDA-MB-231 breast
[5] = test system: SN12C renal
[6] = test system: U251 CNS
[7] = test system: K-562 leukemia
[8] = test system: SR leukemia
[9] = test system: RXF 393 renal
[10] = test system: CCRF-CEM leukemia

SMILES | GI50 [1] [µM] | TGI [1] | GI50 [2] | TGI [2] [µM] | GI50 [3] [µM] | TGI [3] | GI50 [4] [µM] | TGI [4] | GI50 [5] | TGI [5] | GI50 [6] [µM] | TGI [6] | GI50 [7] | TGI [7] | GI50 [8] [µM] | TGI [8] [µM] | GI50 [9] [µM] | TGI [9] | GI50 [10] | TGI [10]
c1ccc(CNCCN(CCNCc2ccccn2)Cc2ccc3ccccc3c2)nc1 | 1.65 | 3.63 µM | 2.36 µM | 6.32 | 2.26 | 6.19 µM | 1.68 | 3.81 µM | 3.21 µM | 11.1 µM | 2.47 | 7.39 µM | 2.97 µM | 8.73 µM | 2.88 | 7.83 | 2.03 | 5.17 µM | 3.08 µM | 10.3 µM
COc1cc(C2c3cc4c(cc3C(OC(=O)C[n+]3ccccc3)C3COC(=O)C23)OCO4)cc(OC)c1OC (stereo unspecified) | > 100 | > 100 µM | < 0.0203 µM | > 100 | < 0.0217 | > 100 µM | < 0.0214 | > 22.4 µM | < 0.0247 µM | > 100 µM | < 0.021 | > 100 µM | < 0.0173 µM | > 100 µM | < 0.016 | > 100 | < 0.0191 | > 100 µM | < 0.0205 µM | > 100 µM
CO[C@H]1CC(O[C@@H]2/C(C)=C/C[C@@H]3C[C@@H](C[C@]4(CC[C@H](C)[C@@H](C5CCCCC5)O4)O3)OC(=O)[C@@H]3C=C(C)/C(=N/O)[C@H]4OC/C(=C\C=C\[C@@H]2C)[C@]43O)O[C@@H](C)C1O (stereo partly specified) | 1.17 | 3.15 µM | 0.777 µM | 1.5 | 1.01 | 2.65 µM | 0.768 | 1.59 µM | 0.889 µM | 1.85 µM | 0.759 | 1.47 µM | 1.17 µM | 2.67 µM | 1.11 | 2.79 | 0.728 | 1.4 µM | – | –
CC(C)CCCCCCCCCCCCC(=O)NCC(=O)NC1C(O)C(O)C(Nc2ncnc3nc[nH]c23)OC1C(O)CO (stereo unspecified) | – | 0.0125 µM and 0.00724 µM | 0.000756 µM and 0.005 µM | – | 0.005 | 0.0354 µM and 0.0371 µM | < 1e-05 | 0.38 µM | 0.00574 µM and 0.005 µM | 0.0729 µM and 0.0145 µM | – | – | 0.00331 µM and 0.0128 µM | 0.412 µM and 3.94 µM | < 1e-05 | – | < 1e-05 | – | 0.0318 µM and 0.023 µM | 0.59 µM and 3.36 µM
C/C=C1/CC(C)C(C)(O)C(=O)OCC2C(O)CN3CCC(OC1=O)C23 (stereo unspecified) | – | – | – | > 100 | – | > 100 µM | – | > 100 µM | – | > 100 µM | – | > 100 µM | – | > 100 µM | – | > 100 | – | > 100 µM | – | > 100 µM
Nc1nc(/C=C\c2ccccc2)nc(N2CCN(c3ccccc3)CC2)n1 | – | – | 36.3 µM | > 100 | – | – | 19.2 | 53.4 µM | 18.2 µM | 38.6 µM | 24.3 | 69.2 µM | 20.5 µM | 65.1 µM | 35.8 | > 100 | 21.6 | 49.2 µM | 37.3 µM | > 100 µM
COc1ccc([C@@]23Oc4cc(OC)cc(OC)c4[C@]2(O)[C@H](O)[C@H](C(N)=O)[C@H]3c2ccccc2)cc1 | 0.0161 | 0.0909 µM and < 0.01 µM | – | – | – | 0.0769 µM and 0.0157 µM | 0.0175 | 0.126 µM and 0.0685 µM | < 0.0113 µM | 0.0751 µM | – | 0.612 µM and 0.194 µM | – | > 100 µM | 0.01 | – | < 0.0115 | 0.0472 µM and 0.0136 µM | – | > 100 µM
COc1cccc(Nc2nc3ccccc3c3occc23)c1 | – | – | 16.7 µM | 34.3 | 10.2 | 22.6 µM | 8.53 | 31.6 µM | 12.1 µM | 35.1 µM | 9.68 | 27.1 µM | 6.27 µM | > 100 µM | 21.2 | 95 | 4.46 | 19.8 µM | – | –
O=C1C=CC(=O)c2c(O)c3c(c(O)c21)C[C@H](O)[C@H](O)[C@@H]3O | – | 2.6 µM | – | 2.37 | – | 4.67 µM | – | 6.08 µM | – | 3.82 µM | – | 16.3 µM | – | > 21.2 µM | – | > 100 | – | 3.43 µM | – | –
COc1ccc(/C=C2/SC(Nc3nc(-c4nc(NC5=NC(=O)/C(=C\c6ccc(OC)cc6)S5)sc4C)c(C)s3)=NC2=O)cc1 | – | – | 1.31 µM | > 50 | 0.944 | 4.97 µM | 1.35 | 7.14 µM | 1.96 µM | 9.19 µM | 1.3 | 7.32 µM | 0.631 µM | > 16.2 µM | 0.14 | > 50 | 1.53 | 7.23 µM | 1.68 µM | > 50 µM
Cc1cn(Cc2ccc(C34CC5CC(CC(C5)C3)C4)c(O)c2)c(=O)[nH]c1=O | 14.6 | 29.7 µM | 8.59 µM | 20.9 | 8.11 | 20.7 µM | 15.5 | 31 µM | 12.3 µM | 25.4 µM | 11.9 | 24.8 µM | 2.99 µM | 11 µM | 3.16 | 13.5 | 1.82 | 7.2 µM | – | –
